For one data set, the target named is T1, human VPAC2 (Homo sapiens, UniProt P41587).
T1 construct: expressed in transfected cells
T1 sequence (P41587 24-438): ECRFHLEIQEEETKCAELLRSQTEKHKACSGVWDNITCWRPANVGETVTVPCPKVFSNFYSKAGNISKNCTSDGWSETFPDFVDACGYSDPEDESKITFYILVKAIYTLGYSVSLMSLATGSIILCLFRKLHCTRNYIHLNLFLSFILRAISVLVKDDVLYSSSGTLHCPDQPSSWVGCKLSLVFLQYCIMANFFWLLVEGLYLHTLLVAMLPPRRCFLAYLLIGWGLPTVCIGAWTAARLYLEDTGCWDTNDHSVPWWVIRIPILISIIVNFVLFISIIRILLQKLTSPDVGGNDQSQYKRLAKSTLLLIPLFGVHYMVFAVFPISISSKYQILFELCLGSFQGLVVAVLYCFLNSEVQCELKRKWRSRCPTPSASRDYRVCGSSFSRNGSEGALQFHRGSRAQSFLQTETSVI
The data set can be described thus: Alpha screen cAMP in vitro potency, human VPAC2 receptor. In kind it is cell-based. As to conditions: cAMP generation; single result from two analyses performed in a single run; read-out: Human VPAC2 Receptor: Alpha Screen EC50. The method, boiled down:
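Stimulated cAMP accumulation is read by AlphaScreen after 60 min exposure of 50,000 non-enzymatically harvested cells to compound, followed by lysis with donor beads.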

The nature of data set [1]: Rat serum stability studies (remaining active peptide by DiscoveRx cAMP on CHO-VPAC2 cells). The class given is in vitro ADME. The protocol: Store the aliquot with aprotinin at 4° C. Store the aliquot without aprotinin at 37° C. […] […] Incubate in room temperature for 30 minutes. Remove the supernatant. […] Incubate on the shaker (300 rpm) for 1 hour. Proceed as normal with the DiscoveRx kit. Include cAMP standards in column 12. Determine EC50 values from the cAMP assay data.

pEC50: −log10 of the molar value. Where a SMILES comes first, the peptide text is derived from it. Where no end group is shown, it is not given here. [ ]: non-standard residue; d: D form. The star is where a group is joined. Orn = NCCC[C@H](N)C(=O)O; Hexanoyl = CCCCCC(=O)*; Aib = CC(C)(N)C(=O)O

As a reminder, the pEC50 is −log10 of the EC50, conventionally taken in molar units. With `CCCCCC(=O)N[C@@H](Cc1c[nH]cn1)C(=O)N[C@@H](CO)C(=O)N[C@@H](CC(=O)O)C(=O)N[C@@H](C)C(=O)N[C@H](C(=O)N[C@@H](Cc1ccccc1)C(=O)N[C@H](C(=O)N[C@@H](CC(=O)O)C(=O)N[C@@H](CC(N)=O)C(=O)N[C@@H](Cc1ccc(O)cc1)C(=O)N[C@H](C(=O)N[C@@H](CCCN)C(=O)N[C@@H](CC(C)C)C(=O)N[C@@H](CCCNC(=N)N)C(=O)NC(C)(C)C(=O)N[C@@H](CCC(N)=O)C(=O)N[C@H](C(=O)N[C@@H](C)C(=O)N[C@@H](C)C(=O)NC(C)(C)C(=O)N[C@@H](CCCCN)C(=O)N[C@@H](Cc1ccc(O)cc1)C(=O)N[C@@H](CC(C)C)C(=O)N[C@@H](CCC(N)=O)C(=O)N[C@@H](CO)C(=O)N[C@H](C(=O)N[C@@H](CCCN)C(=O)N[C@@H](CC(N)=O)C(=O)N[C@@H](CCCN)C(=O)NCC(=O)NCC(=O)N1CCC[C@H]1C(=O)N[C@@H](CO)C(=O)N[C@@H](CO)C(=O)NCC(=O)N[C@@H](C)C(=O)N1CCC[C@H]1C(=O)N1CCC[C@H]1C(=O)N1CCC[C@H]1C(=O)N[C@@H](CO)C(=O)O)[C@@H](C)CC)[C@@H](C)CC)[C@@H](C)O)[C@@H](C)O)C(C)C` [Agonist P365] (Hexanoyl-HSDAVFTDNYT[Orn]LR[Aib]QIAA[Aib]KYLQSI[Orn]N[Orn]GGPSSGAPPPS-OH; C-terminus assumed), the negative logarithm of the EC50 (pEC50) at human VPAC2 was 9.89. Besides, in data set [1], the “Rat Serum Stability (estimated purity in % after 18 hours)” value is 91.13%.

Take `CCCCCC(=O)N[C@@H](Cc1c[nH]cn1)C(=O)N[C@@H](CO)C(=O)N[C@@H](CC(=O)O)C(=O)N[C@@H](C)C(=O)N[C@H](C(=O)N[C@@H](Cc1ccccc1)C(=O)N[C@H](C(=O)N[C@@H](CC(=O)O)C(=O)N[C@@H](CC(N)=O)C(=O)N[C@@H](Cc1ccc(O)cc1)C(=O)N[C@H](C(=O)N[C@@H](CCCNC(=N)N)C(=O)N[C@@H](CC(C)C)C(=O)N[C@@H](CCCNC(=N)N)C(=O)N[C@@H](CCCNC(=N)N)C(=O)N[C@@H](CCC(N)=O)C(=O)N[C@H](C(=O)N[C@@H](C)C(=O)N[C@@H](C)C(=O)N[C@@H](CCCCN)C(=O)N[C@@H](CCCNC(=N)N)C(=O)N[C@@H](Cc1ccc(O)cc1)C(=O)N[C@@H](CC(C)C)C(=O)N[C@@H](CCC(N)=O)C(=O)N[C@@H](CO)C(=O)N[C@H](C(=O)N[C@@H](CCCNC(=N)N)C(=O)N[C@@H](CC(N)=O)C(=O)NCC(=O)NCC(=O)N1CCC[C@H]1C(=O)N[C@@H](CO)C(=O)N[C@@H](CO)C(=O)NCC(=O)N[C@@H](C)C(=O)N1CCC[C@H]1C(=O)N1CCC[C@H]1C(=O)N1CCC[C@H]1C(=O)N[C@@H](CO)C(=O)O)[C@@H](C)CC)C(C)C)[C@@H](C)O)[C@@H](C)O)C(C)C` [Agonist P215] (Hexanoyl-HSDAVFTDNYTRLRRQVAAKRYLQSIRNGGPSSGAPPPS-OH; C-terminus assumed): the pEC50 at human VPAC2 was 10.05. The “Rat Serum Stability (estimated purity in % after 18 hours)” value in data set [1] was 0.08%.

“Hexanoyl-HSDAVFTDNYTRLRKQVAAKKYTQSIKNKRYGGPSSGAPPPS [Agonist P232]”: at human VPAC2, the pEC50 was 8.71. Moreover, the “Rat Serum Stability (estimated purity in % after 18 hours)” value in data set [1] is listed as <5.00%.
